Active and inactive are the calls of the source. The rule behind the calls is not given here.
How the values were obtained:
[1] = Toxicity in BALB/c mouse infected with Leishmania infantum MON-1 promastigotes assessed as biochemical alteration in plasma at 10 to 25 mg/kg, ip administered daily for 14 days starting from 28 days post infection using gold nanoparticle incorporated compound; assay type: organism-based; conditions: in vivo
[2] = Toxicity in BALB/c mouse infected with Leishmania infantum MON-1 promastigotes assessed as swelling of spleen at 10 to 25 mg/kg, ip administered daily for 14 days starting from 28 days post infection using gold nanoparticle incorporated compound; assay type: organism-based; conditions: in vivo
[3] = Mutagenicity in Salmonella typhimurium TA100 at 10 to 75 uM measured after 5 days in presence of S9 fraction by Ames test; assay type: toxicity, subcellular; conditions: salmonella enterica subsp. enterica serovar typhimurium, s9, 120 h
[4] = Toxicity in BALB/c mouse infected with Leishmania infantum MON-1 promastigotes assessed as enzymatic alteration in plasma at 10 to 25 mg/kg, ip administered daily for 14 days starting from 28 days post infection using PLGA nanoparticle incorporated compound; assay type: organism-based; conditions: in vivo
[5] = Mutagenicity in Salmonella typhimurium TA98 at 10 to 75 uM measured after 5 days in absence of S9 fraction by Ames test; assay type: toxicity; conditions: salmonella enterica subsp. enterica serovar typhimurium, s9, 120 h
[6] = Drug metabolism in human liver microsomes assessed as N-oxidation of amide moiety by measuring compound 14 formation at 1 uM measured up to 60 mins by LC-MS/MS analysis; assay type: ADME, Microsome; conditions: 1 h
[7] = Solubility of the compound in water; assay type: physicochemical
[8] = Mutagenicity in Salmonella typhimurium TA100 at 10 to 75 uM measured after 5 days in absence of S9 fraction by Ames test; assay type: toxicity; conditions: salmonella enterica subsp. enterica serovar typhimurium, s9, 120 h
[9] = Toxicity in BALB/c mouse infected with Leishmania infantum MON-1 promastigotes assessed as histological changes at 10 to 25 mg/kg, ip administered daily for 14 days starting from 28 days post infection using PLGA nanoparticle incorporated compound; assay type: organism-based; conditions: in vivo
[10] = Solubility of the compound in plasma (unknown origin); assay type: ADME, cell-free
[11] = Toxicity in BALB/c mouse infected with Leishmania infantum MON-1 promastigotes assessed as biochemical alteration in serum at 10 to 25 mg/kg, ip administered daily for 14 days starting from 28 days post infection using PLGA nanoparticle incorporated compound; assay type: organism-based; conditions: in vivo
Leishmania infantum [12] = assay: Antileishmanial activity against Leishmania infantum MON-1 promastigotes infected in BALB/c mouse assessed as reduction in spleen parasite load at 5 mg/kg, ip administered daily for 14 days starting from 28 days post infection using gold nanoparticle incorporated compound measured post last dose in presence of meglumine antimoniate by Taqman qRT-PCR analysis relative to control; assay type: functional; set-up: scale not given: the % may be the effect or the level left
[13] = Drug metabolism in human liver microsomes assessed as compound 12 formation at 1 uM measured after 30 mins by LC-MS/MS analysis; assay type: ADME, Microsome; conditions: 0.5 h
[14] = Toxicity in BALB/c mouse infected with Leishmania infantum MON-1 promastigotes assessed as swelling of liver at 10 to 25 mg/kg, ip administered daily for 14 days starting from 28 days post infection using PLGA nanoparticle incorporated compound; assay type: organism-based; conditions: in vivo
Leishmania infantum [15] = assay: Antileishmanial activity against Leishmania infantum MON-1 promastigotes infected in BALB/c mouse assessed as reduction in liver parasite load at 10 mg/kg, ip administered daily for 14 days starting from 28 days post infection using gold nanoparticle incorporated compound measured post last dose in presence of meglumine antimoniate by Taqman qRT-PCR analysis relative to control; assay type: functional; set-up: scale not given: the % may be the effect or the level left
Leishmania donovani = assay: Antileishmanial activity against Leishmania donovani MON-2 intracellular amastigotes; assay type: functional, organism-based; conditions: Leishmania donovani, MON-2
[16] = Toxicity in BALB/c mouse infected with Leishmania infantum MON-1 promastigotes assessed as weight loss at 10 to 25 mg/kg, ip administered daily for 14 days starting from 28 days post infection using gold nanoparticle incorporated compound; assay type: organism-based; conditions: in vivo
Leishmania tropica = assay: Antileishmanial activity against Leishmania tropica MON-102 intracellular amastigotes; assay type: functional, organism-based; conditions: Leishmania tropica, MON-102
Leishmania infantum [17] = assay: Antileishmanial activity against Leishmania infantum MON-1 promastigotes assessed as reduction in parasite viability at 100 uM measured after 48 hrs by MTT assay; assay type: functional, organism-based
Leishmania infantum [18] = assay: Antileishmanial activity against Leishmania infantum MON-1 promastigotes infected in BALB/c mouse assessed as reduction in liver parasite load at 5 mg/kg, ip administered daily for 14 days starting from 28 days post infection using gold nanoparticle incorporated compound measured post last dose in presence of meglumine antimoniate by Taqman qRT-PCR analysis relative to control; assay type: functional; set-up: scale not given: the % may be the effect or the level left
[19] = Toxicity in BALB/c mouse infected with Leishmania infantum MON-1 promastigotes assessed as biochemical alteration in plasma at 10 to 25 mg/kg, ip administered daily for 14 days starting from 28 days post infection using PLGA nanoparticle incorporated compound; assay type: organism-based; conditions: in vivo
Cytochrome P450 3A4 = Cytochrome P450 3A4 (Homo sapiens, UniProt P08684); assay: Inhibition of CYP3A4 in human liver microsomes using testosterone as substrate measured after 15 mins by LC-MS/MS analysis; assay type: ADME
Cytochrome P450 3A4, sequence (P08684 whole entry): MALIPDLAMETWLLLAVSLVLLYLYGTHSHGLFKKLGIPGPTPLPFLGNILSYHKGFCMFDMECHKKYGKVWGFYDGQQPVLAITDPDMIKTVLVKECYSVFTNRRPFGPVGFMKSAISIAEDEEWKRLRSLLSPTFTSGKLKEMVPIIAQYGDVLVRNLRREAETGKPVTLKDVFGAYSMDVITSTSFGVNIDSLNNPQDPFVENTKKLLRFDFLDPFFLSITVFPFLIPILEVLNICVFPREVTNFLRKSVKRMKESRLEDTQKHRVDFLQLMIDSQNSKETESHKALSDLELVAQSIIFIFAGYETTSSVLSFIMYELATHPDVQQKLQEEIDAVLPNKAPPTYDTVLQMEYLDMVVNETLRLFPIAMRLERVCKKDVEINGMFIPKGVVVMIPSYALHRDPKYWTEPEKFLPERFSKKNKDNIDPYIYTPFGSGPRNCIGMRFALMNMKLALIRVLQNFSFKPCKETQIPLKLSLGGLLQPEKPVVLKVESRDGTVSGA

Leishmania infantum [20] = assay: Antileishmanial activity against Leishmania infantum MON-1 promastigotes infected in BALB/c mouse assessed as reduction in liver parasite load at 10 mg/kg, ip administered daily for 14 days starting from 28 days post infection using PLGA nanoparticle incorporated compound measured post last dose by Taqman qRT-PCR analysis; assay type: functional, organism-based
Leishmania infantum [21] = assay: Antileishmanial activity against Leishmania infantum MON-1 promastigotes infected in BALB/c mouse assessed as reduction in liver parasite load at 25 mg/kg, ip administered daily for 14 days starting from 28 days post infection using gold nanoparticle incorporated compound measured post last dose by Taqman qRT-PCR analysis relative to control; assay type: functional; set-up: scale not given: the % may be the effect or the level left
[22] = Toxicity in BALB/c mouse infected with Leishmania infantum MON-1 promastigotes assessed as swelling of liver at 10 to 25 mg/kg, ip administered daily for 14 days starting from 28 days post infection using gold nanoparticle incorporated compound; assay type: organism-based; conditions: in vivo
Leishmania infantum [23] = assay: Antileishmanial activity against Leishmania infantum MON-1 intracellular amastigotes infected in Swiss mouse BMDM assessed as reduction in parasite load at 3.21 uM measured after 48 hrs using PLGA nanoparticle incorporated compound by Giemsa staining based optical microscopic analysis relative to control; assay type: functional; set-up: scale not given: the % may be the effect or the level left
[24] = Toxicity in BALB/c mouse infected with Leishmania infantum MON-1 promastigotes assessed as histological changes at 10 to 25 mg/kg, ip administered daily for 14 days starting from 28 days post infection using gold nanoparticle incorporated compound; assay type: organism-based; conditions: in vivo
[25] = Toxicity in BALB/c mouse infected with Leishmania infantum MON-1 promastigotes assessed as enzymatic alteration in serum at 10 to 25 mg/kg, ip administered daily for 14 days starting from 28 days post infection using PLGA nanoparticle incorporated compound; assay type: organism-based; conditions: in vivo
[26] = Drug metabolism in human liver microsomes assessed as compound 13 formation at 1 uM measured after 30 mins by LC-MS/MS analysis; assay type: ADME, Microsome; conditions: 0.5 h
Leishmania infantum [27] = assay: Antileishmanial activity against Leishmania infantum MON-1 intracellular amastigotes infected in Swiss mouse BMDM measured after 48 hrs by Giemsa staining based optical microscopic analysis; assay type: functional, organism-based; conditions: Leishmania infantum, MON-1, BMDM, 48 h
Leishmania infantum [28] = assay: Antileishmanial activity against Leishmania infantum MON-1 promastigotes infected in BALB/c mouse assessed as reduction in spleen parasite load at 25 mg/kg, ip administered daily for 14 days starting from 28 days post infection using gold nanoparticle incorporated compound measured post last dose by Taqman qRT-PCR analysis relative to control; assay type: functional; set-up: scale not given: the % may be the effect or the level left

In the case of `O=C(CCCCCCC(=O)Nc1ccccc1)NOC(c1ccccc1)(c1ccccc1)c1ccccc1`, the Activity [1] is reported as “Non-Toxic”, the Activity [2] is reported as “Non-Toxic” and the Activity [3] is reported as “Non-Toxic”. For the same molecule, the Activity [4] was “Non-Toxic”, the Activity [5] was “Non-Toxic” and the Drug metabolism [6] was “Metabolite_Detected”. The solubility [7] was under 0.1 mg/mL, the Activity [8] was “Non-Toxic” and the Activity [9] was “Non-Toxic”. For the same molecule, the solubility [10] was “Insoluble”, the Activity [11] was “Non-Toxic” and the Activity (Leishmania infantum [12]) was 84%. For the same molecule, the Drug metabolism [13] was “Metabolite_Detected”, the Activity [14] was “Non-Toxic” and the Activity (Leishmania infantum [15]) was 100%. For the same molecule, the IC50 (Leishmania donovani) was 2.91 µM, the Activity [16] was “Non-Toxic” and the IC50 (Leishmania tropica) was 0.71 µM. The Activity (Leishmania infantum [17]) was “inactive”, the Activity (Leishmania infantum [18]) was 98% and the Activity [19] was “Non-Toxic”. For the same molecule, the IC50 (Cytochrome P450 3A4) was 5.56 µM, the Activity (Leishmania infantum [20]) was “inactive” and the Activity (Leishmania infantum [21]) was 68%. For the same molecule, the Activity [22] was “Non-Toxic”, the Activity (Leishmania infantum [23]) was 54% and the Activity [24] was “Non-Toxic”. For the same molecule, the Activity [25] was “Non-Toxic”, the Drug metabolism [26] was “Metabolite_Detected” and the IC50 (Leishmania infantum [27]) was 3.21 µM. The Activity (Leishmania infantum [28]) was 96%.

Reference: ChEMBL document CHEMBL4602729, “O-Alkyl Hydroxamates Display Potent and Selective Antileishmanial Activity” (J Med Chem, 2020)
